In patent publication US9415108B2, “Compositions for transdermal delivery of active agents” (NeuroDerm, Ltd., priority 2010, dated 2016):
One block for each molecule: values may come before it.

Legend:
Type in all cases: in vitro ADME
[1] = Transdermal delivery of carbidopa through full thickness pig skin ex vivo, Franz Cell delivery system; details: for Transdermal delivery of Carbidopa through full thickness pig skin, ex vivo: 24 h, 8.85% carbidopa-arginine salt
Protocol: The effects of octanol, limonene and/or lauroglycol on the transdermal delivery of carbidopa through full thickness pig skin are evaluated using the Franz Cell delivery system. Formulations containing carbidopa, octanol, limonene, and/or lauroglycol are prepared (formulations 1-8). Samples are collected from the receive cell at 24 and 41 hours after application of the formulation to the skin. The amount of carbidopa compounds in the receiver cell fluid is determined using a spectrophotometer and/or UV-HPLC at 280 nm. […] In Table 1 and FIG. 1, the formulations each contain 14.5% (by weight) carbidopa-arginine salt. In Table 2 the formulations each contain 8.85% (by weight) carbidopa-arginine salt.

[2] = Transdermal delivery of opipramol through full thickness pig skin ex vivo
Protocol: FIG. 7 depicts the effect of organic acids on the transdermal delivery of opipramol through full thickness pig skin. Formulations containing opipramol, various organic acids (succinic acid, citric acid, lactic acid, ascorbic acid, malic acid, or tartaric acid), octanol, lauroglycol, and/or Klucel® are prepared. Samples are collected from the receive cell at 22 and 46 hours after application of the formulations to the skin. The amount of opipramol compounds in the receiver cell fluid is determined using a spectrophotometer and/or UV-HPLC at 280 nm. FIG. 8 depicts the effects of octanol, limonene and/or lauroglycol on the transdermal delivery of opipramol (5% by weight) through full thickness pig skin.

[3] = as above; remark: listed apart in the source
[4] = inclusion of Klucel hydroxypropyl cellulose in formulation containing octanol and limonene (FIG. 4)

Transdermal delivery of Carbidopa through full thickness pig skin, ex vivo ([1]; Octanol 0, Limonene 1.5, Oleic Acid 0): 1.0 mg/cm^2 | Transdermal delivery of Carbidopa through full thickness pig skin, ex vivo ([1]; Octanol 0, Limonene 1.5, Oleic Acid 2): 1.0 mg/cm^2 | Transdermal delivery of Carbidopa through full thickness pig skin, ex vivo ([1]; Octanol 4, Limonene 1.5, Oleic Acid 0): 6.4 mg/cm^2 | Effect of the combination of octanol and lauroglycol on delivery of carbidopa through pig skin ([1]; FIG. 1, depends on the octanol:lauroglycol ratio): enhances | Effect of the combination of octanol and limonene on delivery of carbidopa through pig skin ([1]; FIGS. 1 and 2, Tables 1 and 2): additive and/or synergistic effect | Effect on lag time of carbidopa penetration through the skin ([1]; addition of lactic acid to formulation containing octanol and limonene (FIG. 3)): reduces | Effect on lag time of carbidopa penetration [1, 4]: increases | Effect on rate of carbidopa penetration through the skin [1, 4]: reduces | Enhancement of penetration of the drug through the skin ([1]; on increasing the amount of carbidopa in the formulation by 50% (FIG. 5)): 25%
SMILES: C[C@@](Cc1ccc(O)c(O)c1)(NN)C(=O)O [Carbidopa, carbidopa]

Effect of addition of organic acids on transdermal delivery of opipramol ([2]; FIG. 7): significantly increases | Effect of lactic acid and citric acid on opipramol penetration through the skin ([2]; FIG. 7): minimal effect | Effect of tartaric acid on opipramol delivery relative to other organic acids ([2]; FIG. 7, followed by ascorbic, succinic and malic acid): highest enhancing effect | Effect of the combination of octanol and limonene on delivery of opipramol through pig skin ([2]; FIG. 8, opipramol 5% by weight): additive and/or synergistic effect | Effect of glutamic acid on opipramol penetration through the skin ([3]; FIG. 9): significantly increases | Effect of increasing concentration of Klucel on penetration of opipramol through the skin ([3]; FIG. 10): reduces | Effect of tartaric acid on opipramol penetration through the skin as compared to opipramol base ([3]; FIG. 11): significantly increases | Tartaric acid compared with hydrochloric acid, opipramol penetration ([3]; FIG. 11): significantly superior | Transdermal delivery of opipramol at 5% opipramol in the formulation ([3]; FIG. 12, higher concentration): may be inhibited | Rate of opipramol penetration ([3]; glutamic acid formulation, in the presence of 1% limonene (FIG. 9)): reduced | Lag time of opipramol penetration through the skin ([3]; glutamic acid formulation, in the presence of 5% water (FIG. 9)): shortened
SMILES: OCCN1CCN(CCCN2c3ccccc3C=Cc3ccccc32)CC1 [opipramol]
Effect of lauroglycol in the formulation on opipramol delivery ([2]; FIG. 8, Table 3): reduces the additive and/or synergistic effect | Opipramol delivery of formulation containing 2.5% (wt) opipramol ([3]; FIG. 12, compared with 1% formulation): delivers more opipramol than the 1% formulation
